According to patent publication US10519183B2, “Amine solvate of sodium-glucose linked transporter inhibitor, and preparation method and application thereof” (Youngene Therapeutics Co., Ltd., priority 2016, dated 2019):

Tests used:
SGLT2 = target: T1, SGLT2 (Homo sapiens, UniProt P31639); settings: cited from earlier work
T1 sequence (P31639 1-672): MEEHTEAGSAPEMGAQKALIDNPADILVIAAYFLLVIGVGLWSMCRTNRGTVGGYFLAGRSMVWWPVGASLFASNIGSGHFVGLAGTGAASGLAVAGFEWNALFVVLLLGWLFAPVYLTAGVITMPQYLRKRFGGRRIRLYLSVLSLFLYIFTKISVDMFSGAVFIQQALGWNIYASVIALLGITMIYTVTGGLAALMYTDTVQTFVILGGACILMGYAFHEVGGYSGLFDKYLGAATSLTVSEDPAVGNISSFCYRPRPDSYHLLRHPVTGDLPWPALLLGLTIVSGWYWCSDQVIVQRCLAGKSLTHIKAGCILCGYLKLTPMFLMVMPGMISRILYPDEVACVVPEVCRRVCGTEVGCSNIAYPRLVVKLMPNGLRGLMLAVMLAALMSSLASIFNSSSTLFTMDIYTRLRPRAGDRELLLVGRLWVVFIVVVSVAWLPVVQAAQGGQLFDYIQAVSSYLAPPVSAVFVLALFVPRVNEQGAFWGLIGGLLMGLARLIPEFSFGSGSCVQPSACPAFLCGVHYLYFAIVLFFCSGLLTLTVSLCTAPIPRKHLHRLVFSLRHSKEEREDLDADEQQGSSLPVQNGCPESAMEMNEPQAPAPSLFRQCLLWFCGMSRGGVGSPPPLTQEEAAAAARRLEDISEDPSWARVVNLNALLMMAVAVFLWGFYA

SGLT1 = target: T2, SGLT1 (Homo sapiens, UniProt P13866); settings: cited from earlier work
T2 sequence (P13866 1-664): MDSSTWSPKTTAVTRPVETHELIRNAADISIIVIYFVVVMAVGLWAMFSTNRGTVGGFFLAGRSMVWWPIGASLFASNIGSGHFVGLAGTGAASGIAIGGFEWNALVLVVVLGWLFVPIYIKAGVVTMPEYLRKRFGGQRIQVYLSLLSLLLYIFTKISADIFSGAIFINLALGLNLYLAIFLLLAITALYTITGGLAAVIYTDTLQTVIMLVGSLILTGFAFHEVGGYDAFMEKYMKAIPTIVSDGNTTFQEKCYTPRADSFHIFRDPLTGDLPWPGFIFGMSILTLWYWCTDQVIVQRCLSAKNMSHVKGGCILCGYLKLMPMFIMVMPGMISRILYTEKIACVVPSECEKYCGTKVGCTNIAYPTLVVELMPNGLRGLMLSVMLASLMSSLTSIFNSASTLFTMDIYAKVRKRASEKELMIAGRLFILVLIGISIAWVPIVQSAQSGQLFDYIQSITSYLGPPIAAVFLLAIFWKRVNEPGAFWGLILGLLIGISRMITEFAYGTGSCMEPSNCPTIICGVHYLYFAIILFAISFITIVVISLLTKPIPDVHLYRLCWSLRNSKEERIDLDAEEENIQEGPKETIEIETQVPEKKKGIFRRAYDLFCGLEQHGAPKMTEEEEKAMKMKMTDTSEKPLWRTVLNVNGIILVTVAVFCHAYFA

[1] = stress study on physical stability and chemical stability (80° C., one week); format: physicochemical; settings: for Chemical purity: HPLC
Protocol: The stress study on the physical stability and chemical stability of the diethylamine solvate of the compound of formula (I) and the amorphous compound of formula (I) were carried out. The diethylamine solvate of the compound of formula (I) obtained in Example 3 and the amorphous compound of formula (I) were placed in glass vials respectively in duplicate, about 10 mg each sample. These samples for stability test were placed in an incubator at 80° C. for one week. After being placed for one week, one sample was used for the chemical purity analysis by HPLC method. The other sample was used for the crystal characterization by XRPD.

degradation at high temperature ([1]; 80° C., stress stability test): changed and degraded immediately
Chemical purity ([1]; After being placed for one week at 80° C.): 90.2%
Chemical purity ([1]; Initial state of the samples): 95.1%
SMILES: CCc1ccc([C@]23OC[C@](CO)(O2)[C@@H](O)[C@H](O)[C@H]3O)cc1Cc1ccc2c(c1)OCCO2 [compound of formula (I), (1S,2S,3S,4R,5S)-5-(3-((2,3-dihydrobenzo[b][1,4]dioxin-6-yl)methyl)-4-ethylphenyl)-1-(hydroxymethyl)-6,8-dioxabicyclo[3.2.1]octane-2,3,4-triol]
inhibitory effect on SGLT2 (SGLT2): very significant inhibitory effect
inhibitory effect on SGLT1 (SGLT1): significant inhibitory effect
